This is an account of results in ChEMBL document CHEMBL1143902, “Design and synthesis of a pyrido[2,3-d]pyrimidin-5-one class of anti-inflammatory FMS inhibitors” (Bioorg Med Chem Lett, 2008).

The target in series [1] is T1, Macrophage colony-stimulating factor 1 receptor (Homo sapiens, UniProt P07333).
Description: Inhibition of ATP-induced CSF1R autophosphorylation
A further series has as its system Macrophage. Put plainly: Inhibition of CSF1-induced proliferation of mouse bone marrow derived macrophages.
The nature of series [2]: Metabolic stability in rat liver microsomes after 10 mins. As to conditions: read-out: Stability. The format is ADME, Microsome.
The nature of series [3]: Metabolic stability in human liver microsomes after 10 mins. Type of series: ADME, Microsome. As to conditions: read-out: Stability. Background: Microsomes from liver hold many membrane-bound enzymes, among them those of drug oxidation.
The target of series [4] is T1, Macrophage colony-stimulating factor 1 receptor. Kind of series: Inhibition of CSF1R.
Series [5] is described as follows: Clearance in rat at 2 mg/kg, iv. The format is ADME, organism-based. Set-up: dose 2 mg/kg, route intravenous. As to conditions: in vivo.
The nature of series [6]: Volume of distribution in rat at 2 mg/kg, iv. The format is ADME, organism-based. Set-up: dose 2 mg/kg, route intravenous. As to conditions: in vivo.
Series [7] concerns the target T2, Adenosine receptor A3 (Homo sapiens) (UniProt P0DMS8).
T2 sequence (whole entry): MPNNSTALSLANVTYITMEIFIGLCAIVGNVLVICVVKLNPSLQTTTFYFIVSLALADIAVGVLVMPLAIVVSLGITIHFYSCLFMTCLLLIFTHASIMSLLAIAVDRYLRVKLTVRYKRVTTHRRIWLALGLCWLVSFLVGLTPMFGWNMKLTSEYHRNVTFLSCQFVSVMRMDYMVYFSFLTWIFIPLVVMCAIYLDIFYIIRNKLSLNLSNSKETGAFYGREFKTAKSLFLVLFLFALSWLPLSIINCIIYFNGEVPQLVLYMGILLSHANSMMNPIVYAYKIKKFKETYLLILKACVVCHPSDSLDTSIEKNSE
Kind of series: Inhibition of human A3 receptor at 10 uM.

For series [8], the target named is Mast/stem cell growth factor receptor Kit (Homo sapiens, UniProt P10721). Kind of series: Inhibition of KIT.
Series [9] can be described thus: Bioavailability in rat 10 mg/kg, po. As to conditions: in vivo. Type of series: ADME, organism-based.
Series [10] concerns the target T3, Receptor-type tyrosine-protein kinase FLT3 (Homo sapiens, UniProt P36888).
T3 sequence (P36888 whole entry): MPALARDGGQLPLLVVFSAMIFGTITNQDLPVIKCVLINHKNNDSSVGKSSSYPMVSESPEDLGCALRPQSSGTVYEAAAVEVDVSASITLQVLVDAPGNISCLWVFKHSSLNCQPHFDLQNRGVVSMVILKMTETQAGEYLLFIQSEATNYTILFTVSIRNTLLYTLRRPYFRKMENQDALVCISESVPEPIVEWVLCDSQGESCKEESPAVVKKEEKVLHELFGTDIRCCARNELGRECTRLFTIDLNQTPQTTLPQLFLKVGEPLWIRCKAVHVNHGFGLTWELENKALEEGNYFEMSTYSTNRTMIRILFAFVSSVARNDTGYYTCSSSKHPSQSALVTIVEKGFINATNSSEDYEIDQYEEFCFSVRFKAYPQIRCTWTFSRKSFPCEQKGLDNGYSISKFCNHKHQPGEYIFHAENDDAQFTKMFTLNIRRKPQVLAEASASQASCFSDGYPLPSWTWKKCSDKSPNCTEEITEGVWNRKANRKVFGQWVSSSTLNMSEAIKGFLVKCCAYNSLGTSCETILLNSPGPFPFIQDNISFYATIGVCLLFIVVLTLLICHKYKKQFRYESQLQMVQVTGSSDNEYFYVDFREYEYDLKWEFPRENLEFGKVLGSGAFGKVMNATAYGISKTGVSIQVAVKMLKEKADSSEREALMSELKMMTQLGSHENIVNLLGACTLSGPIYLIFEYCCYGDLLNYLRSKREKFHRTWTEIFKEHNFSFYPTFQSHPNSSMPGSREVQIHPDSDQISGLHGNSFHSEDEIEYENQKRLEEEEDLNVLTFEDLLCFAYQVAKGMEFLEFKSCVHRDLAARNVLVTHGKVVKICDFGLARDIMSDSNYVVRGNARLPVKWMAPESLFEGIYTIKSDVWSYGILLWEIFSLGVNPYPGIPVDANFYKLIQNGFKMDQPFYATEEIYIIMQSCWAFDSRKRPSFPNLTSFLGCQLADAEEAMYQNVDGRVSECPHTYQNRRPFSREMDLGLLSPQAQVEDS
Put plainly: Inhibition of FLT3.

Series [11] concerns the target Platelet-derived growth factor receptor beta (Homo sapiens, UniProt P09619). Put plainly: Inhibition of PDGFRbeta.
In series [12] the target is High affinity nerve growth factor receptor (Homo sapiens, UniProt P04629). Put plainly: Inhibition of TrkA.
Series [13] in a line: Inhibition of IRKbeta.
The target of series [14] is T4, Tyrosine-protein kinase receptor UFO (Homo sapiens, UniProt P30530).
T4 sequence (P30530 whole entry): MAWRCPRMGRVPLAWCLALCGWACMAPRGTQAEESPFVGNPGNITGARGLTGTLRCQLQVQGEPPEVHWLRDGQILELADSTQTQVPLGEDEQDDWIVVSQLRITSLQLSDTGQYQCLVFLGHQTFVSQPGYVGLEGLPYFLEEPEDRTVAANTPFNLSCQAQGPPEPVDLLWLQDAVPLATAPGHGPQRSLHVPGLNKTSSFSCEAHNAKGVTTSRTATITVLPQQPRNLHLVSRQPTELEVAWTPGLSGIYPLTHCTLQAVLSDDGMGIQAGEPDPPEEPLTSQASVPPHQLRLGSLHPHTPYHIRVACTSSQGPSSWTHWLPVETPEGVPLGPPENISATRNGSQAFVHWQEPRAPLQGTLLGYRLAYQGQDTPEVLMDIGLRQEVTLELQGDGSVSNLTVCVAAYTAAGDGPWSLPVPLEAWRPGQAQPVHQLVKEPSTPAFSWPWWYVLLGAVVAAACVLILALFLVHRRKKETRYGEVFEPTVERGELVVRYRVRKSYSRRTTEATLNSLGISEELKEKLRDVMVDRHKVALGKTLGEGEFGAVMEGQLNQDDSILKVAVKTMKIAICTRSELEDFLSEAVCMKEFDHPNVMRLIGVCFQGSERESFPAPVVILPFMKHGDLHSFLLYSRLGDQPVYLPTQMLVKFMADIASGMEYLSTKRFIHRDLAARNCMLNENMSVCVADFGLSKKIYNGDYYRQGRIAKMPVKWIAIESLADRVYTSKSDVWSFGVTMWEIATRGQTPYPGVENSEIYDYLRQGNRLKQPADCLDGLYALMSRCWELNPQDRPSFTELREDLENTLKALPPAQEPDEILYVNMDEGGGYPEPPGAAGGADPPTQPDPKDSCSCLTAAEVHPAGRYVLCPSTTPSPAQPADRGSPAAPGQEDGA
Put plainly: Inhibition of Axl.

For series [15], the system named is Mus musculus. Kind of series: Inhibition of LPS-induced TNFalpha production in Swiss Webster mouse plasma at 50 mg/kg, ip after 90 mins. The format is functional. The arrangement: scale not given: the % may be the effect or the level left. As to conditions: route intraperitoneal.
The target in series [16] is Adenosine receptor A2a (Homo sapiens) (UniProt P29274). Put plainly: Inhibition of human A2A receptor at 10 uM.
Series [17] concerns Mus musculus. Kind of series: Inhibition of LPS-induced TNFalpha production in Swiss Webster mouse plasma at 20 mg/kg, ip after 90 mins. Set-up: scale not given: the % may be the effect or the level left. The format is functional. As to conditions: route intraperitoneal.
Series [18] deals with Proto-oncogene tyrosine-protein kinase Src (Homo sapiens, UniProt P12931). Kind of series: Inhibition of Src.
Series [19] has as its target T2, Adenosine receptor A3 (Homo sapiens). Kind of series: Inhibition of human A3 receptor at 5 uM.

T1 sequence (P07333 whole entry): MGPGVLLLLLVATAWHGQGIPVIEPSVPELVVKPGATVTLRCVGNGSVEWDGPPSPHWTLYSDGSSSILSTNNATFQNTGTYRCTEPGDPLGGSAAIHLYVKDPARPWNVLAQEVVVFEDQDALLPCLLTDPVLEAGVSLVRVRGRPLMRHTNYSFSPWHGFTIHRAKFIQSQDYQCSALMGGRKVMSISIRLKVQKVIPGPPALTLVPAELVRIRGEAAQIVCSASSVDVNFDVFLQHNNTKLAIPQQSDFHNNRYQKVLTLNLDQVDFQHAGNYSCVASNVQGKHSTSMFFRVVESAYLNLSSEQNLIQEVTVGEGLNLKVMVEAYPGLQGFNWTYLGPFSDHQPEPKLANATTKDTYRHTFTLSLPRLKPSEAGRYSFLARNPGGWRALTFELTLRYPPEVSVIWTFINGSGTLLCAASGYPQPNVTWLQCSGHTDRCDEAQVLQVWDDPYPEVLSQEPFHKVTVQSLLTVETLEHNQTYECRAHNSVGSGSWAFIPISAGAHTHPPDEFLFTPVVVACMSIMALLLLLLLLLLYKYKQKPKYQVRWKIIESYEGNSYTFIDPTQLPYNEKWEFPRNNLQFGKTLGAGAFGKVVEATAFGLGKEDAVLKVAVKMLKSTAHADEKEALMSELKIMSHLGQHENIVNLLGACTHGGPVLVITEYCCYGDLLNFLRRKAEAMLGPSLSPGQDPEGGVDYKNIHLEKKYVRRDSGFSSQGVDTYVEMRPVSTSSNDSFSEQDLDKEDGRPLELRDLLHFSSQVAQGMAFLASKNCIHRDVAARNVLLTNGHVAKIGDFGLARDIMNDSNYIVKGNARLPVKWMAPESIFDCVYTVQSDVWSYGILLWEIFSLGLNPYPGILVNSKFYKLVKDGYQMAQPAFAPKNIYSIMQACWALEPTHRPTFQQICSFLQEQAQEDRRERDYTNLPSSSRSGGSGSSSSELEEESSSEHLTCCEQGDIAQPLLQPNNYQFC
Chain of High affinity nerve growth factor receptor (P04629 whole entry): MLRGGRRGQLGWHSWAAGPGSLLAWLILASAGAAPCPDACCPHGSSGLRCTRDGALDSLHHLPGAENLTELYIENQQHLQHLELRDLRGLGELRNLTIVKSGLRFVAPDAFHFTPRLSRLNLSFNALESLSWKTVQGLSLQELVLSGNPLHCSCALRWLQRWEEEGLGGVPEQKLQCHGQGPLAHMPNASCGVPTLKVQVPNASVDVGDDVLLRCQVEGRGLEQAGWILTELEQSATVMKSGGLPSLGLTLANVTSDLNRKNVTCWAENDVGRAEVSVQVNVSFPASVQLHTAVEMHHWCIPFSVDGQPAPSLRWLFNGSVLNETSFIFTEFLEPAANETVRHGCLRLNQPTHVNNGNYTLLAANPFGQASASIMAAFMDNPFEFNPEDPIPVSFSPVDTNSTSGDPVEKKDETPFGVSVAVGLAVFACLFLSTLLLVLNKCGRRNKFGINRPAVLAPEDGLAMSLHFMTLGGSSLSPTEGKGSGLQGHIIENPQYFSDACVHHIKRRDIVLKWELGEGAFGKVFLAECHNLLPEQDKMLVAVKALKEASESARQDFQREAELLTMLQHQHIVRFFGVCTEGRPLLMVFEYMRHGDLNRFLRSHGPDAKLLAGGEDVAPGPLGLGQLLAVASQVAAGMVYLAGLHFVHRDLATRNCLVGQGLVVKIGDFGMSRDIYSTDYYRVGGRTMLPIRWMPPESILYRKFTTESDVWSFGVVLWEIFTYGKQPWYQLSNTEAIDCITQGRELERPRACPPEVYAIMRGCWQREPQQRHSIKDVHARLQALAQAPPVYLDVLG
Chain of Proto-oncogene tyrosine-protein kinase Src (P12931 2-536 limits assumed): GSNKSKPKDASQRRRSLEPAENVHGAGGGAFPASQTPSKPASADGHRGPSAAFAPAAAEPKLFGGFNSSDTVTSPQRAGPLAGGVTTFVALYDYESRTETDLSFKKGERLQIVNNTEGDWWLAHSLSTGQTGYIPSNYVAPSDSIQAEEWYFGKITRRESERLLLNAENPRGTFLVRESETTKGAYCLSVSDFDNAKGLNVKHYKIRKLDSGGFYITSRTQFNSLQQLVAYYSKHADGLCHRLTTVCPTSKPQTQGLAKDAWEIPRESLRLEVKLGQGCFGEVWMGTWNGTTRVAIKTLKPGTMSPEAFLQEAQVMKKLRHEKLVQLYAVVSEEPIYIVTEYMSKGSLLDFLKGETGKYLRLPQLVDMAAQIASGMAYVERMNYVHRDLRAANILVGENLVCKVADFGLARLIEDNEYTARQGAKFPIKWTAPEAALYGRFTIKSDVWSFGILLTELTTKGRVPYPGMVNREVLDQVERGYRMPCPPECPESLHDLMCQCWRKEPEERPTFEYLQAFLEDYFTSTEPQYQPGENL
Chain of Mast/stem cell growth factor receptor Kit (P10721 whole entry): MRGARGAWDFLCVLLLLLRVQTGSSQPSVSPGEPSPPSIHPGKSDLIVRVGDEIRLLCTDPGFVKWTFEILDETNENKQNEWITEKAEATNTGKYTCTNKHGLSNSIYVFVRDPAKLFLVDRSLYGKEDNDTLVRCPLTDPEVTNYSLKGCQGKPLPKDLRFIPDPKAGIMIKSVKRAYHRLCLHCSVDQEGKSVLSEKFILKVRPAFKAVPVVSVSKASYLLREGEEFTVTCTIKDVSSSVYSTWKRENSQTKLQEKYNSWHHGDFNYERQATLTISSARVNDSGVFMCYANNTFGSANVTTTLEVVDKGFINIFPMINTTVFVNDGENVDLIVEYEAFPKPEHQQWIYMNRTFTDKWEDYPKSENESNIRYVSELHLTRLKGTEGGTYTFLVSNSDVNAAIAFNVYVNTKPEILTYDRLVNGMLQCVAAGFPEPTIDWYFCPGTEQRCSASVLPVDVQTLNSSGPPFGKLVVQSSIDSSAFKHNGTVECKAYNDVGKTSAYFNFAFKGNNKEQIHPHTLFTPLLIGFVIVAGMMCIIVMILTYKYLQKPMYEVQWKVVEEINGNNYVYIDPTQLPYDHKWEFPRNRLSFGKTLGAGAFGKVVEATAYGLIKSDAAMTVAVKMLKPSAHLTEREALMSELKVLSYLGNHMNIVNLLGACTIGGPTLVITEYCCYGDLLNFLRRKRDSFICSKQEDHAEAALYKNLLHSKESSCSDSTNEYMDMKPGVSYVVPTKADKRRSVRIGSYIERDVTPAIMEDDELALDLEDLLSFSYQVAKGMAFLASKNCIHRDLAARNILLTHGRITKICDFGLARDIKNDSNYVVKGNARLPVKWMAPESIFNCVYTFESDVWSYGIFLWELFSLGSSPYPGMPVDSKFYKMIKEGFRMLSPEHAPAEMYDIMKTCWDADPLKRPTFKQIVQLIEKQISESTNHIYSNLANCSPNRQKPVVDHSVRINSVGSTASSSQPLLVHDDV
Chain of Platelet-derived growth factor receptor beta (P09619 whole entry): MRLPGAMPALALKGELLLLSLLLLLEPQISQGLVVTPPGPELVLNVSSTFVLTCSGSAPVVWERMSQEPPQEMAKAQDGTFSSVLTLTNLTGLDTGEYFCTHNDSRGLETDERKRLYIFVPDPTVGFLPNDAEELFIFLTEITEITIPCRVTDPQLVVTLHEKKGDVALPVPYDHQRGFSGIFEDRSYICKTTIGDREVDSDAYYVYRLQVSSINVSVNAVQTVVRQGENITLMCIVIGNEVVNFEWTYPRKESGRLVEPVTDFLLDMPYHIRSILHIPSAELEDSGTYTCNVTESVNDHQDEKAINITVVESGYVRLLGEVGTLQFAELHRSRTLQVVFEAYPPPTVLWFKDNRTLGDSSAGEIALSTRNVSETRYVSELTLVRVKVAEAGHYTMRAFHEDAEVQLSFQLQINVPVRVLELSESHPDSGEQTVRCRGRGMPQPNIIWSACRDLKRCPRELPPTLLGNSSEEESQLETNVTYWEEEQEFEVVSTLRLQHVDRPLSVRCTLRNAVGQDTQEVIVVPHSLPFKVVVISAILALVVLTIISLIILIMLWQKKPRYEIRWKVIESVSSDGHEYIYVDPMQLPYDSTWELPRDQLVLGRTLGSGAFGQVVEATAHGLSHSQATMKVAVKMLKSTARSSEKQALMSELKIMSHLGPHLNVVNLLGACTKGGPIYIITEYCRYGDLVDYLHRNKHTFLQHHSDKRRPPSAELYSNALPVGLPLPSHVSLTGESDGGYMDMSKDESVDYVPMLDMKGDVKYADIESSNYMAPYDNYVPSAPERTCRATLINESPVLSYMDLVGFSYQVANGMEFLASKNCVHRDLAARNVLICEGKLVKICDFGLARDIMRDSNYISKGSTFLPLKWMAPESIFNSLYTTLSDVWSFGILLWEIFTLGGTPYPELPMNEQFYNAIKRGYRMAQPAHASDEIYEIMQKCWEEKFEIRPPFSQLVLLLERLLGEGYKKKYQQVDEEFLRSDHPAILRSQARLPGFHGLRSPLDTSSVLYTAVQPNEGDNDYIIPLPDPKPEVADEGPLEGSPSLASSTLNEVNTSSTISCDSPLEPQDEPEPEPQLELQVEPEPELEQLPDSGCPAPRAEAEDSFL
Chain of Adenosine receptor A2a (Homo sapiens) (P29274 whole entry): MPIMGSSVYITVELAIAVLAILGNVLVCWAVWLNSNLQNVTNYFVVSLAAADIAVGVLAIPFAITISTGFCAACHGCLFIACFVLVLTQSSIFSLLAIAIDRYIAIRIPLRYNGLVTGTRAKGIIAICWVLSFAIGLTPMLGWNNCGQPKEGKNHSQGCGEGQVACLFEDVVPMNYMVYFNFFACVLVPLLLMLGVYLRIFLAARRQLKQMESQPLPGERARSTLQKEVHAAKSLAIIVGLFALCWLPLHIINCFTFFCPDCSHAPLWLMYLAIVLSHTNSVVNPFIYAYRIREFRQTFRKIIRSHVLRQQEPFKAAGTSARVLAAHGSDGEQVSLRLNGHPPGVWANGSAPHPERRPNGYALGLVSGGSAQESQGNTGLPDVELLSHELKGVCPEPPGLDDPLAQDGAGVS

The term IC50 denotes the concentration at which inhibition is half-maximal. Turning to `CN1CCN(CCCNc2ncc3c(=O)c(C(N)=O)cn(-c4ccc5c(c4)CCC5)c3n2)CC1`, in series [1], the IC50 is 1800 nM.

Compound `NC(=O)c1cn(-c2ccc3c(c2)CCC3)c2nc(Nc3ccccc3)ncc2c1=O` displayed a half-inhibitory concentration (IC50) in series [1] of 280 nM.

In the case of `NC(=O)c1cn(-c2ccc3c(c2)CCC3)c2nc(Nc3ccc(CCN4CCOCC4)cc3)ncc2c1=O`, the IC50 (in [1]; in the series with Macrophage) was 8 nM in each case. Also, the remaining at 10 min stood at 83% in series [2] and 58% in [3].

With `CN1CCN(CCc2ccc(Nc3ncc4c(=O)c(C(N)=O)cn(-c5ccc6c(c5)CCC6)c4n3)cc2)CC1`, in the series on Macrophage, the half-inhibitory concentration (IC50) is 9 nM. Besides, the remaining at 10 min in series [2] was found to be 84%; in [3] it was 96%.

`CCOC(=O)c1nc2cnc(Nc3ccccc3)nc2n(-c2ccccc2)c1=O` [PTERIDINONE] had a 50% inhibitory concentration (IC50) in [4] of 180 nM.

`NC(=O)c1cn(-c2ccc3c(c2)CCC3)c2nc(Nc3ccc(CN4CCOCC4)cc3)ncc2c1=O`: the IC50 stood at 22 nM in series [1] and 27 nM with Macrophage. For the same compound, the remaining at 10 min in series [2] was found to be 9.7%; in series [3], 2.5%.

In the series on Macrophage, `NC(=O)c1cn(-c2ccc3c(c2)CCC3)c2nc(Nc3cccc(C(=O)N4CCCCC4)c3)ncc2c1=O` had an IC50 of 14 nM.

For `NC(=O)c1cn(-c2ccc3c(c2)CCC3)c2nc(Nc3ccc(C4CCNCC4)cc3)ncc2c1=O`, the concentration for half-maximal inhibition (IC50) in the series with Macrophage was determined as 51 nM.

In general, clearance refers to a measure of how efficiently the substance is removed, as volume per time. Broadly, the Vd is the apparent volume that relates the amount in the body to the concentration in plasma or blood. The term inhibition denotes the change of the read-out against control, counted positive when it falls. For orientation: bioavailability means the share of a dose that reaches the circulation, judged against a reference dose that is usually intravenous. The compound `CN1CCN(Cc2ccc(Nc3ncc4c(=O)c(C(N)=O)cn(-c5ccc6c(c5)CCC6)c4n3)cc2)CC1` returned a clearance in series [5] of 29 mL/min/kg. In series [6], this compound came in with a Vd of 26.5 L/kg. For the same compound, the results for the inhibition in series [7] and in series [16] were 60% and 58%, respectively. Moreover, the half-inhibitory concentration (IC50) is 28 nM in [8]; 1 nM in [10]; above 2000 nM in series [11]; 11 nM in the series with Macrophage; 310 nM in series [12]; above 2000 nM in series [13]. In addition, the half-maximal inhibitory concentration (IC50) was above 500 nM in series [14] and 1500 nM in [18]. The same compound came in with a bioavailability in series [9] of 4%. The remaining at 10 min in series [2] is 54%; in series [3], 74%. Further, the results for the Activity with Mus musculus [15] and in the series on Mus musculus [17] were 87% and 81%, respectively.

Consider `CC1CN(c2ccc(Nc3ncc4c(=O)c(C(N)=O)cn(-c5ccc6c(c5)CCC6)c4n3)cc2)CC(C)N1` (centres undefined), for which the IC50 with Macrophage is 3 nM.

`CN1CCN(c2ccc(Nc3ncc4c(=O)c(C(N)=O)cn(-c5ccc6c(c5)CCC6)c4n3)cc2)CC1` gave a clearance in series [5] of 133 mL/min/kg. Further, the distribution volume (Vd) in series [6] is 18.7 L/kg. Moreover, the IC50 in [8] was 56 nM; in [10] it was 3 nM; in series [11] it was above 1000 nM; in the series on Macrophage, 16 nM; in [12], 200 nM; in series [13], above 1000 nM. Besides, the IC50 in series [14] is above 300 nM; in series [4], 13 nM; in [18], 1000 nM. Also, the remaining at 10 min amounted to 87.3% in series [2] and 80.5% in series [3]. In [19], this compound showed an inhibition of 55%.

For the compound `CN(C)CCc1ccc(Nc2ncc3c(=O)c(C(N)=O)cn(-c4ccc5c(c4)CCC5)c3n2)cc1`, the IC50 with Macrophage is 16 nM. The remaining at 10 min came to 65% in [2] and 88% in series [3].

`NC(=O)c1cn(-c2ccc3c(c2)CCC3)c2nc(Nc3ccc(C[C@H]4COC(=O)N4)cc3)ncc2c1=O` displayed a half-inhibitory concentration (IC50) in the series on Macrophage of 90 nM.

`CN(C)Cc1ccc(Nc2ncc3c(=O)c(C(N)=O)cn(-c4ccc5c(c4)CCC5)c3n2)cc1`: the half-inhibitory concentration (IC50) in the series with Macrophage stood at 4 nM. Moreover, the remaining at 10 min in series [2] turned out to be 38%; in series [3] it was 35%.

Regarding `CN1CCN(c2cccc(Nc3ncc4c(=O)c(C(N)=O)cn(-c5ccc6c(c5)CCC6)c4n3)c2)CC1`, inhibition with Macrophage was half-maximal at 6 nM (IC50).

With `NC(=O)c1cn(-c2ccc3c(c2)CCC3)c2nc(Nc3ccc(N4CCNCC4)cc3)ncc2c1=O`, the half-maximal inhibitory concentration (IC50) with Macrophage was 4 nM.

Consider `CCOC(=O)c1cn(-c2ccc3c(c2)CCC3)c2nc(Nc3ccc(N4CCN(C)CC4)cc3)ncc2c1=O`, for which the figures for the IC50 (in series [1]; in the series on Macrophage) were 250 nM and 470 nM, respectively.
